In patent US7323474B2, “Pyridine derivatives inhibiting angiogenesis and/or VEGF receptor tyrosine kinase” (Novartis AG, priority 2000, dated 2008) one finds IC50 and melting point data, which are given here for 25 compounds.

Data set [1] concerns the target T1, KDR VEGF-receptor tyrosine kinase (Homo sapiens, UniProt P35968).
T1 construct: instead of the Flt-1 kinase domain, the KDR kinase domain
Description: Test for activity against KDR VEGF-receptor tyrosine kinase. The class given is biochemical. The following applies: KDR kinase domain; poly(Glu,Tyr) 4:1 8 μg/ml, 8 μM [33P]-ATP, 10 minutes at room temperature. As to the method:
Test for activity against VEGF-receptor tyrosine kinase: the test is conducted using Flt-1 VEGF-receptor tyrosine kinase. The detailed procedure is as follows: 30 μl kinase solution (kinase domain of Flt-1, Shibuya et al., Oncogene 5, 519-24 [1990], according to the specific activity, in order to achieve an activity of 4000-6000 counts per minute [cpm] in the sample without inhibitor) in 20 mM Tris.HCl pH 7.5, 3 mM manganese dichloride (MnCl2), 3 mM magnesium chloride (MgCl2) and 3 μg/ml poly(Glu,Tyr) 4:1 (Sigma, Buchs, Switzerland), 8 μM [^33P]-ATP (0.2 μCi/batch), 1% dimethyl sulfoxide, and 0 to 50 μM of the compound to be tested are Incubated together for 10 minutes at room temperature. The reaction is then ended by the addition of 10 μl 0.25 M ethylenediaminetetraacetate (EDTA) pH 7. Using a multichannel dispenser (LAB SYSTEMS, USA), an aliquot of 20 μl is applied to a PVDF (=polyvinyl difluoride) Immobilon P membrane (Millipore, USA), which is incorporated into a Millipore microtitre filter manifold, and connected to a vacuum. Following complete elimination of the liquid, the membrane is washed 4 times successively in a bath containing 0.5% phosphoric acid (H3PO4), incubated for 10 minutes each time while shaking, then mounted in a Hewlett Packard TopCount Manifold and the radioactivity measured after the addition of 10 μl Microscint® (β-scintillation counter liquid; Packard USA). IC50-values are determined by linear regression analysis of the percentages for the inhibition of each compound in three concentrations (as a rule 0.01, 0.1, and 1 μM). Inhibition values (IC50 50% inhibition of activity compared with the control without an inhibitor of formula I) in the range of 5 nM to 1 μM, especially In the range of 5 nM to 500 nM are found.
Analogously to the above test, the efficacy of the compounds according to the invention as inhibitors of VEGF activity can be tested using the VEGF receptor tyrokinase KDR. In this test, instead of the Flt-1 kinase domain, the KDR kinase domain (Parast et al., Biochemistry 37 (47), 16788-801 (1998)) is used. The only difference in carrying out this test from the above test lies in the concentration of poly(Glu,Tyr) 4:1 (8 μg/ml), MnCl2 (1 mM) and MgCl2 (10 mM).
Test for activity against KDR VEGF-receptor tyrosine kinase The test is conducted using KDR VEGF-receptor tyrosine kinase, as described hereinabove. The IC50 values determined are given below, insofar as they have been accurately recorded: […]

For data set [2], the target named is T2, human VEGF receptor (KDR) (Homo sapiens, UniProt P35968).
T2 construct: expressed in transfected cells; host or cells: CHO cells (stably transfected)
The experiment in a line: Test for activity against VEGF-induced KDR phosphorylation (transfected CHO cells, sandwich ELISA). Format: cell-based. As to conditions: 2 h compound, then VEGF 20 ng/ml for 5 min, % inhibition of VEGF-induced KDR phosphorylation, read-out: ED50 (the source's name). As to the method: Using a further cellular in vitro experiment, the inhibition of the VEGF-induced KDR autophosphorylation can be confirmed: Transfected CHO cells, which permanently express human VEGF receptor (KDR), are seeded in culture medium (with 10% fetal calf serum=FCS) in 6-well cell culture plates and incubated at 37° C., 5% CO2 until they are approximately 80% confluent. The compounds to be tested are then diluted in culture medium (without FCS, with 0.1% bovine serum albumin=BSA) and added to the cells. (Controls receive medium without test compounds). After incubation for two hours at 37° C., recombinant VEGF is added; the final VEGF concentration is 20 ng/ml. After incubating for a further five minutes at 37° C., the cells are washed twice with ice-cold PBS (phosphate-buffered physiological saline) and immediately lysed in 100 μl lysis buffer per well. The lysates are then centrifuged to remove the cell nuclei, and the protein concentrations of the supematants are determined by a commercial protein assay (BIORAD). The lysates can then be either further used immediately or stored at −20° C. if required. To determine the KDR phosphorylation, a “sandwich ELISA” is carried out. A monoclonal antibody to KDR (for example Mab 1495.12.14; prepared by H. Towbin) is immobilised on black ELISA plates (OptiPlate™ HTRF-96 by Packard). Subsequently, the plates are washed and any remaining free protein binding sites are neutralised with 1% BSA in PBS. The cell lysates (20 μg protein per well) are then incubated over night at 4° C. together with an anti-phosphotyrosin antibody, which is coupled with alkaline phosphatase (PY20:AP from Transduction Laboratories). […] Luminescence is measured in a Packard Top Count Microplate Scintillation Counter (Top Count). The difference between the signal from the positive control (stimulated with VEGF) and that from the negative control (not stimulated with VEGF) corresponds to the VEGF-induced KDR phosphorylation (=100%). The activity of the tested substances is calculated as % inhibition of the VEGF-induced KDR phosphorylation, whereby the concentration of a substance which effects semi-maximum inhibition is called ED50 (effective dose for 50% inhibition). […] Test for activity against VEGF-Induced KDR phosphorylation The cellular in vitro test is carried out using VEGF and KDR-transfected cells, as described above. The ED50 values determined are given below, insofar as they have been accurately recorded: […]

T2 sequence (P35968 20-1356): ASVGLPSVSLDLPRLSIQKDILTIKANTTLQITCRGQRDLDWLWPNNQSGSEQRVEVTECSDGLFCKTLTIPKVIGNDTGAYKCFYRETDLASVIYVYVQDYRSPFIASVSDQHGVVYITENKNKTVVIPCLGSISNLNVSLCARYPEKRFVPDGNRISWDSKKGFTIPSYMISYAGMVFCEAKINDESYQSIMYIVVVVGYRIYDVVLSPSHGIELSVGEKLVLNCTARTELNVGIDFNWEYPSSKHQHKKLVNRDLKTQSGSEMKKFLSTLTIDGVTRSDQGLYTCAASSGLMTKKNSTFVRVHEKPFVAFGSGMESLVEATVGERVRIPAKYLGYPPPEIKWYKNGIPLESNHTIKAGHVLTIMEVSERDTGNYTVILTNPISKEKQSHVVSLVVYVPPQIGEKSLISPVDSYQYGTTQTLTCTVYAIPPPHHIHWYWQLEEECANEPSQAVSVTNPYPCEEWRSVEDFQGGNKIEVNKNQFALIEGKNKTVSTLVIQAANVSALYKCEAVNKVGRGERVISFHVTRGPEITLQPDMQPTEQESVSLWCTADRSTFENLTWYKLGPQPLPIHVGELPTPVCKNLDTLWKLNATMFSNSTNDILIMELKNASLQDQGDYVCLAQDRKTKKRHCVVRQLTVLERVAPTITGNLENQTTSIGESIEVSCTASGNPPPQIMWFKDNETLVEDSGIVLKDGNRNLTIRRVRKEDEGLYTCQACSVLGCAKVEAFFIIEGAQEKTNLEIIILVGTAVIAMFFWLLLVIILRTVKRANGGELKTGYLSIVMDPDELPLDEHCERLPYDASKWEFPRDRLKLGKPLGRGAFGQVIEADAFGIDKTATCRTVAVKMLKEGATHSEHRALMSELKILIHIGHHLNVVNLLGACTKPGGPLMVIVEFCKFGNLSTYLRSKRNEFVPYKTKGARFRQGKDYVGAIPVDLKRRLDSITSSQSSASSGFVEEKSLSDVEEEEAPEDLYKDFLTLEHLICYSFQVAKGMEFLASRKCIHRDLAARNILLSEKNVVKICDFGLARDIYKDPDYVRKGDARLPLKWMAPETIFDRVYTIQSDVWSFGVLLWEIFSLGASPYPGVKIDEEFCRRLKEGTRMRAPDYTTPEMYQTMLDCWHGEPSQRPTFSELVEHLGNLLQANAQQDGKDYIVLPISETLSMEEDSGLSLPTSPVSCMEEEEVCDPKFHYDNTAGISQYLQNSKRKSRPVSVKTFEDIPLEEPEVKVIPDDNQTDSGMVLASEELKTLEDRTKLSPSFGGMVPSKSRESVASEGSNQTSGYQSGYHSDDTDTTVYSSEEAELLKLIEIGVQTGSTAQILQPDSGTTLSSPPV
T1 sequence (P35968 834-1162 limits assumed): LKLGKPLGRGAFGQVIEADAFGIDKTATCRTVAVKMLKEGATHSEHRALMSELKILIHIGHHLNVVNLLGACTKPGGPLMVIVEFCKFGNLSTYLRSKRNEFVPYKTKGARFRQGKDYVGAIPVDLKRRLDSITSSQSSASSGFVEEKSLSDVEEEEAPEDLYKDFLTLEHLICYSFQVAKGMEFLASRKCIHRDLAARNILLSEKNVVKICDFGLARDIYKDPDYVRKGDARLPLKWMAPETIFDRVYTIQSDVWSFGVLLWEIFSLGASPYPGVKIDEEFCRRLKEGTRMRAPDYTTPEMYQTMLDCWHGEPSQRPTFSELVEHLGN

Turning to `Cc1ccc(CCc2cnc(N[C@H]3CC[C@H](C(C)C)CC3)c3ccccc23)cn1` [Example 19, trans 1-(4-isopropyl-cyclohexylamino)-4-[2-(6-methyl-pyridin-3-yl)-ethyl]-isoquinoline], in data set [1], the IC50 was 127 nM. For `CCc1ccc(Nc2ncc(CCc3cccnc3)c3ccccc23)cc1Br` [Example 9, 1-(3-bromo-4ethylanilino)-4-[2-(pyridin-3-yl)-ethyl]-isoquinoline], the melting point is 119 °C. The same compound showed an IC50 in data set [1] of 4 nM. Also, in data set [2], the IC50 was 91 nM. Consider `FC(F)(F)c1cc(Nc2ncc(CCc3cccnc3)c3ccccc23)cc(C(F)(F)F)c1` [Example 12], for which the melting point was found to be 174 °C. The IC50 in data set [1] was found to be 192 nM.

Regarding `CCc1ccc(Nc2ncc(CCc3ccc(C)nc3)c3ccccc23)cc1Br` [Example 21], the melting point was in the range of 103 to 105 °C. For the same compound, the IC50 in data set [1] is 15 nM.

Compound `CC(C)[C@H]1CC[C@H](Nc2ncc(Cc3ccc(O)nc3)c3ncccc23)CC1` [Example 39, trans 5-(4-isopropyl-cyclohexylamino)-8-[(6-hydroxy-pyridin-3-yl)-methyl]-[1,6]naphthyridine] returned a melting point of 232 to 235 °C. In the case of `CCc1ccc(Nc2ncc(Cc3ccc(O)nc3)c3ccccc23)cc1Br` [Example 34g, 1-(3-bromo-4-ethylanilino]-4-[(6-hydroxy-pyridin-3-yl)-methyl]-isoquinoline], the IC50 in data set [1] is 137 nM; in data set [2], 29 nM. `CC(C)(C)[C@H]1CC[C@H](Nc2ncc(CCc3cccnc3)c3ccccc23)CC1` [16 (E isomer), trans 1-(4-tert-butyl-cyclohexylamino)-4-[2-(pyridin-3-yl)-ethyl]-isoquinoline]: the melting point fell in the range of 124 to 125 °C. Besides, the IC50 in data set [1] was 196 nM. In turn, `Clc1ccc(Nc2ncc(CCc3cccnc3)c3ccccc23)cc1` [Example 1, 1-(4chloroanilino)-4-[2-(pyridin-3-yl)-ethyl]-isoquinoline] displayed a melting point of 157 to 158 °C. For the same compound, the IC50 in data set [1] is 105 nM.

On to `Cc1ccc(Nc2ncc(/C=C/c3cccnc3)c3ccccc23)cc1Br` [Example 3, (E) 1-(3-bromo-4-methylanilino)-4-[2-(pyridin-3-yl)-vinyl]-isoquinoline], for which the melting point was in the range of 196 to 197 °C. Further, in data set [1], the IC50 stood at 123 nM. As to `CC(C)(C)c1ccc(Nc2ncc(CCc3cccnc3)c3ccccc23)cc1` [Example 5], the melting point came out at 81 °C. In data set [1], this compound yielded an IC50 of 25 nM. Further, the IC50 in data set [2] was 10 nM. In the case of `CC(C)(C)c1ccc(Nc2ncc(Cc3ccc(O)nc3)c3ccccc23)cc1` [Example 34e, 1-[4-(tert-butyl)-anilino]4-[(6-hydroxy-pyridin-3-yl)-methyl]-isoquinoline], the IC50 in data set [2] came out at 19 nM. As for `FC(F)(F)c1ccc(Nc2ncc(CCc3cccnc3)c3ccccc23)cc1C(F)(F)F` [Example 11], the melting point lay within 124 to 125 °C. In addition, the IC50 in data set [1] turned out to be 41 nM. Take `CCc1ccc(Nc2ncc(Cc3ccc(OC)nc3)c3ncccc23)cc1Br` [Example 37a, 5-(3-bromo-4-ethyl-anilino)-8-[(6-methoxy-pyridin-3-yl)-methyl]-[1,6]naphthyridine]: the melting point is 142 to 146 °C. Take `Nc1cc(Cl)cc(C(F)(F)F)c1` [Example 7, 5-amino-3-chloro-benzotrifluoride]: in data set [1], the IC50 is 185 nM.

For the compound `COc1ccc(Cc2cnc(Nc3ccc(C(C)(C)C)cc3)c3cccnc23)cn1` [Example 40e, 5-[4-(tert-butyl)-anilino]-8-[(6-methoxy-pyridin-3-yl)-methyl]-[1,6]naphthyridine], the results for the IC50 in data set [1] and in data set [2] were 81 nM and 52 nM, respectively. In the case of `CC(C)(C)c1ccc(Nc2ncc(Cc3ccc(O)nc3)c3ncccc23)cc1` [Example 41e, 5-[4-(tert-butyl)-anilino]-8-[(6-hydroxy-pyridin-3-yl)-methyl]-[1,6]naphthyridine], the IC50 in data set [2] turned out to be 22 nM. With `COc1ccc(Cc2cnc(Nc3ccc(C(C)(C)C)cc3)c3ccccc23)cn1` [Example 33e, 1-[4-(tert-butyl)-anilino]-4-[(6-methoxy-pyridin-3yl)-methyl]-isoquinoline], the IC50 in data set [2] came out at 28 nM.

As to `Cc1nc(Nc2cccc(C(F)(F)F)c2)c2ccccc2c1Cc1ccc(Cl)nc1` [Example 45a, 1-(3-trifluoromethyl-anilino)-4-[(6-chloro-pyridin-3-yl)-methyl]-3-methylisoquinoline], the melting point stood at 137 °C.

In data set [1], `CC(C)[C@H]1CC[C@H](Nc2ncc(Cc3ccc(O)nc3)c3ccccc23)CC1` [29 (E isomer), trans 1-(4-isopropyl-cyclohexylamino)-4-[(6-hydroxy-pyridin-3-yl)-methyl]-isoquinoline] showed an IC50 of 87 nM. On to `Cc1ccc(CCc2cnc(Nc3ccc(C(C)C)c(C)c3)c3ccccc23)cn1` [Example 20], for which the IC50 in data set [1] worked out at 48 nM. `Cc1ccc(Nc2ncc(/C=C\c3cccnc3)c3ccccc23)cc1Br` [Example 2, (Z) 1-(3-bromo-4-methylanilino)-4-[2-(pyridin-3-yl)-vinyl]-isoquinoline]: the IC50 in data set [1] stood at 49 nM. In turn, `Cc1cc(Nc2ncc(CCc3cccnc3)c3ccccc23)ccc1C(C)C` [Example 8] had a melting point of 133 to 134 °C. For the same compound, the IC50 in data set [1] turned out to be 27 nM. In addition, the IC50 in data set [2] stood at 11 nM. As for `FC(F)(F)c1cc(Nc2ncc(CCc3cccnc3)c3ccccc23)ccc1Cl` [Example 13], the melting point was 159 °C. Besides, the IC50 in data set [1] came to 53 nM. In data set [1], `CCc1ccc(Nc2ncc(Cc3ccc(O)nc3)c3ncccc23)cc1Br` [Example 37b, 5-(3-bromo-4-ethyl-anilino)-8-[(6-hydroxy-pyridin-3-yl)-methyl]-[1,6]naphthyridine] gave an IC50 of 92 nM. For the compound `CC(C)(C)c1cccc(Nc2ncc(CCc3cccnc3)c3ccccc23)c1` [Example 10], the melting point lay in the range of 133 to 134 °C. In addition, the IC50 in data set [1] was 33 nM.
